Literature values as cited in PMC9516332 (Frontiers in Oncology, 2022).
Where two headings read alike, the source gives them in different places.

Columns and labels:
Conditions in all cases: cited from earlier work
[1] = molecular target: panel of 255 wild-type kinases (Homo sapiens, UniProt Q13555)
[2] = molecular target: T1, panel of 255 wild-type kinases (Homo sapiens, UniProt Q12851)
T1 sequence (Q12851 1-820): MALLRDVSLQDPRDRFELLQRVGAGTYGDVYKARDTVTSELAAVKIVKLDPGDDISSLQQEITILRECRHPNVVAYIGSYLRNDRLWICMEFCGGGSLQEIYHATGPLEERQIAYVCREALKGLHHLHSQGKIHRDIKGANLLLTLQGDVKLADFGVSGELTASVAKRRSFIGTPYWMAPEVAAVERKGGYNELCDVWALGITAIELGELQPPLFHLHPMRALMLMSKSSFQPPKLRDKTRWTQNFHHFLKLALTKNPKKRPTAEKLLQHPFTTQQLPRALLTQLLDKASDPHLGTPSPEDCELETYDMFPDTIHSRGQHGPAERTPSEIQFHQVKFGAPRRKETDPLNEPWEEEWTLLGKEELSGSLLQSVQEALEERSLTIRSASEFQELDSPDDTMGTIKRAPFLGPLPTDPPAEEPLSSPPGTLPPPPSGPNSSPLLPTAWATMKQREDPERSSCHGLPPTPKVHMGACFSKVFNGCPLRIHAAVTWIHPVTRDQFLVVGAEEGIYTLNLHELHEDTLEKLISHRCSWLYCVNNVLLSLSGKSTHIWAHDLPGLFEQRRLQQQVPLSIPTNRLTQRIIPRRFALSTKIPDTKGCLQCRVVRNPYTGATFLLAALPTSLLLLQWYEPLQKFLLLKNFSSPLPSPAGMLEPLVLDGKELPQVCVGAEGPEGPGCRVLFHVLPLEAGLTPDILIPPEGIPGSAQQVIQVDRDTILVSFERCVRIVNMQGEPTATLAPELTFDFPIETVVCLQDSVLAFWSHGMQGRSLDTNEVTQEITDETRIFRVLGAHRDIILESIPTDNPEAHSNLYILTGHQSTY

[3] = molecular target: panel of 255 wild-type kinases (Homo sapiens, UniProt P51451)
[4] = molecular target: T2, panel of 255 wild-type kinases (Homo sapiens, UniProt Q9NWZ3)
T2 sequence (Q9NWZ3 1-460): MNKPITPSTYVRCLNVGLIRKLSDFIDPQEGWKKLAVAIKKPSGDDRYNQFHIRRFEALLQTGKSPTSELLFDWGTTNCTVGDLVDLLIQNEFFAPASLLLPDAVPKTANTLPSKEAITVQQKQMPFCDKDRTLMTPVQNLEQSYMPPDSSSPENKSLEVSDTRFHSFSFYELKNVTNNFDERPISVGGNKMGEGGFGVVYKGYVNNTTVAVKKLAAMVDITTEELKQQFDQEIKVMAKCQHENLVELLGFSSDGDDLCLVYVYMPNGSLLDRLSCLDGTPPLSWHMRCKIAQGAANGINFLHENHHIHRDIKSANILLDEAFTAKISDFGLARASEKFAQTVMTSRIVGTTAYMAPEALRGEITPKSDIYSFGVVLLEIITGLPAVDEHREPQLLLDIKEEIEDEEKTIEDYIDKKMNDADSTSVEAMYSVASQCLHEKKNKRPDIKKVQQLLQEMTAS

[5] = molecular target: panel of 255 wild-type kinases (Homo sapiens, UniProt Q9HBH9)
[6] = molecular target: panel of 255 wild-type kinases (Homo sapiens, UniProt P06241)
[7] = molecular target: panel of 255 wild-type kinases (Homo sapiens, UniProt P11309)
[8] = molecular target: panel of 255 wild-type kinases (Homo sapiens, UniProt Q9Y243)
[9] = molecular target: panel of 255 wild-type kinases (Homo sapiens, UniProt Q16512)
[10] = molecular target: panel of 255 wild-type kinases (Homo sapiens, UniProt P54756)
[11] = molecular target: panel of 255 wild-type kinases (Homo sapiens, UniProt P78368)
[12] = molecular target: panel of 255 wild-type kinases (Homo sapiens, UniProt P17612)
[13] = molecular target: panel of 255 wild-type kinases (Homo sapiens, UniProt P49841)
[14] = molecular target: panel of 255 wild-type kinases (Homo sapiens, UniProt Q13627)
[15] = CaMK2γ kinase assay, 1 µmol/L single concentration, ref DOI: 10.1158/1535-7163.MCT-18-0877
[16] = kinase MAP4K2, 1 µmol/L single concentration, ref DOI: 10.1158/1535-7163.MCT-18-0877
[17] = BLK kinase assay, 1 µmol/L single concentration, ref DOI: 10.1158/1535-7163.MCT-18-0877
[18] = kinase IRAK4, 1 µmol/L single concentration, ref DOI: 10.1158/1535-7163.MCT-18-0877
[19] = MNK2, 1 µmol/L single concentration, ref DOI: 10.1158/1535-7163.MCT-18-0877
[20] = kinase FYN [isoform a], 1 µmol/L single concentration, ref DOI: 10.1158/1535-7163.MCT-18-0877
[21] = kinase PIM1, 1 µmol/L single concentration, ref DOI: 10.1158/1535-7163.MCT-18-0877
[22] = AKT3 kinase assay, 1 µmol/L single concentration, ref DOI: 10.1158/1535-7163.MCT-18-0877
[23] = kinase PKN1, 1 µmol/L single concentration, ref DOI: 10.1158/1535-7163.MCT-18-0877
[24] = kinase EPHA5, 1 µmol/L single concentration, ref DOI: 10.1158/1535-7163.MCT-18-0877
[25] = kinase CK1γ2, 1 µmol/L single concentration, ref DOI: 10.1158/1535-7163.MCT-18-0877
[26] = kinase PKACα, 1 µmol/L single concentration, ref DOI: 10.1158/1535-7163.MCT-18-0877
[27] = kinase GSK3β, 1 µmol/L single concentration, ref DOI: 10.1158/1535-7163.MCT-18-0877
[28] = kinase DYRK1A, 1 µmol/L single concentration, ref DOI: 10.1158/1535-7163.MCT-18-0877

Compound: O=C(c1ccc(F)c(F)c1Nc1ccc(I)cc1F)N1CC(O)([C@@H]2CCCCN2)C1 [cobimetinib]
- %-inhibition CaMK2γ [1, 15]: -2.31%
- %-inhibition at 1 µmol/L, MAP4K2 [2, 16]: -5.57%
- %-inhibition BLK [3, 17]: 10%
- %-inhibition at 1 µmol/L, IRAK4 [4, 18]: -4.31%
- %-inhibition, MNK2 [5, 19]: 8%
- %-inhibition at 1 µmol/L, FYN [isoform a] [6, 20]: 0.258%
- %-inhibition at 1 µmol/L, PIM1 [7, 21]: 1%
- %-inhibition AKT3 [8, 22]: -3.43%
- %-inhibition at 1 µmol/L, PKN1 [9, 23]: 19%
- %-inhibition at 1 µmol/L, EPHA5 [10, 24]: 1.26%
- %-inhibition at 1 µmol/L, CK1γ2 [11, 25]: 2.37%
- %-inhibition at 1 µmol/L, PKACα [12, 26]: -10%
- %-inhibition at 1 µmol/L, GSK3β [13, 27]: -2.44%
- %-inhibition at 1 µmol/L, DYRK1A [14, 28]: -5%

Compound: C=CC(=O)Nc1cc(Nc2nccc(-c3cn(C)c4ccccc34)n2)c(OC)cc1N(C)CCN(C)C [osimertinib]
- %-inhibition CaMK2γ [1, 15]: 4.25%
- %-inhibition at 1 µmol/L, MAP4K2 [2, 16]: -0.698%
- %-inhibition BLK [3, 17]: 66%
- %-inhibition at 1 µmol/L, IRAK4 [4, 18]: -2.76%
- %-inhibition, MNK2 [5, 19]: 97%
- %-inhibition at 1 µmol/L, FYN [isoform a] [6, 20]: 0.721%
- %-inhibition at 1 µmol/L, PIM1 [7, 21]: -4.4%
- %-inhibition AKT3 [8, 22]: -1.74%
- %-inhibition at 1 µmol/L, PKN1 [9, 23]: 14%
- %-inhibition at 1 µmol/L, EPHA5 [10, 24]: -0.189%
- %-inhibition at 1 µmol/L, CK1γ2 [11, 25]: 17%
- %-inhibition at 1 µmol/L, PKACα [12, 26]: -11%
- %-inhibition at 1 µmol/L, GSK3β [13, 27]: -4%
- %-inhibition at 1 µmol/L, DYRK1A [14, 28]: 0.712%

Compound: Cc1cc(Nc2ncc(Cl)c(Nc3ccccc3S(=O)(=O)C(C)C)n2)c(OC(C)C)cc1C1CCNCC1 [ceritinib]
- %-inhibition CaMK2γ [1, 15]: 32%
- %-inhibition at 1 µmol/L, MAP4K2 [2, 16]: 7.37%
- %-inhibition BLK [3, 17]: 2%
- %-inhibition at 1 µmol/L, IRAK4 [4, 18]: 1.3%
- %-inhibition, MNK2 [5, 19]: 76%
- %-inhibition at 1 µmol/L, FYN [isoform a] [6, 20]: 4%
- %-inhibition at 1 µmol/L, PIM1 [7, 21]: -8%
- %-inhibition AKT3 [8, 22]: -4%
- %-inhibition at 1 µmol/L, PKN1 [9, 23]: 25%
- %-inhibition at 1 µmol/L, EPHA5 [10, 24]: 5%
- %-inhibition at 1 µmol/L, CK1γ2 [11, 25]: 0.506%
- %-inhibition at 1 µmol/L, PKACα [12, 26]: -8%
- %-inhibition at 1 µmol/L, GSK3β [13, 27]: -2.5%
- %-inhibition at 1 µmol/L, DYRK1A [14, 28]: 1.13%

Compound: COc1cc(N2CCC(N3CCN(C)CC3)CC2)ccc1Nc1ncc(Cl)c(Nc2ccccc2P(C)(C)=O)n1 [brigatinib]
- %-inhibition CaMK2γ [1]: 96%
- %-inhibition at 1 µmol/L, MAP4K2 [2]: 77%
- %-inhibition BLK [3]: 83%
- %-inhibition at 1 µmol/L, IRAK4 [4]: 46%
- %-inhibition, MNK2 [5]: 66%
- %-inhibition at 1 µmol/L, FYN [isoform a] [6]: 69%
- %-inhibition at 1 µmol/L, PIM1 [7]: 3%
- %-inhibition AKT3 [8]: -0.864%
- %-inhibition at 1 µmol/L, PKN1 [9]: 77%
- %-inhibition at 1 µmol/L, EPHA5 [10]: 4%
- %-inhibition at 1 µmol/L, CK1γ2 [11]: -2.5%
- %-inhibition at 1 µmol/L, PKACα [12]: 17%
- %-inhibition at 1 µmol/L, GSK3β [13]: -1.81%
- %-inhibition at 1 µmol/L, DYRK1A [14]: 38%
